Data on 2 compounds can be found in paper PMC3832412 (PLoS ONE, 2013).

The subject of assay [1] is NMDAR in primary rat hippocampal neurons. Type of assay: cell-based, rat (Sprague-Dawley).
Another assay deals with GluN2A subunit. The settings on record: ref [41], cited from earlier work.

Several values for one entry are separate records, joined by “and”; a condition that tells them apart may be missing. Equal entries are not always repeated. Where two headings read alike, the source gives them in different places.

Take `C[C@H](NC(c1cccc2[nH]c(=O)c(=O)[nH]c12)P(=O)(O)O)c1ccc(Br)cc1` (stereo partly shown) [NVP-AAM007]: the “inhibition of iCa^2+ influx” value in assay [1] is 46% and 64%. The NMDAR subunit specificity entry in the assay with GluN2A subunit (60 nM) is recorded as “specifically inhibits the GluN2A subunit”; with GluN2A subunit (400 nM), “non-subunit specific”.
For the compound `CC(C(O)c1ccc(O)cc1)N1CCC(Cc2ccccc2)CC1` (stereo not shown) [ifenprodil], the “inhibition of iCa^2+ influx” value in assay [1] amounted to 64%.
